Assay results published in patent publication US11602534B2, “Pyrimidine derivative kinase inhibitors” (HEFEI INSTITUTES OF PHYSICAL SCIENCE, CHINESE ACADEMY OF …, priority 2017, dated 2023).

Tests used:
C-Myc = assay: Degradation of C-Myc in AML cells; format: cell-based, human; settings: MV-4-11, MOLM13 and MOLM-14; 4 hours; compounds 0.01-3 μM, PKC412 1 μM
Procedure: In cells having FLT3 gene and/or FLT3/ITD mutant gene, specifically, human acute myeloid leukemia cells MV4-11 (expressing FLT3/ITD mutant gene) cell strain and human acute myeloid leukemia cells MOLM-13 and MOLM-14 (expressing FLT3/ITD mutant gene and wild-type FLT3 gene) cell strains, Compound 5, Compound 135 and a FLT3 kinase inhibitor, PKC412 (purchased from Hao Yuan Chemexpress Company, Shanghai), which was used as the control, were evaluated for their effects in cells on phosphorylation of FLT3 and FLT3/ITD protein kinase and phosphorylation of the closely-related STATS protein which is downstream of FLT3 signaling pathways, as well as their effects on phosphorylation of other relevant protein kinases such as ERK and AKT, by assaying a number of cellular biochemical and functional endpoints. In addition, the effects on C-Myc and phosphorylation of the transcription factor NF-κB subunit p65 was also examined (FIGS. 1a-1f). Compound 5 and Compound 135 at different concentrations (0 μM, 0.01 μM, 0.03 μM, 0.1 μM, 0.3 μM, 1 μM, 3 μM in DMSO) and the FLT3 kinase inhibitor PKC412 (1 μM in DMSO) were used to treat acute myeloid leukemia cells MV-4-11, MOLM13 and MOLM-14 that had FLT3 and/or FLT3/ITD gene for 4 hours, respectively, and then the samples were collected. The effects of the compounds on the phosphorylation of proteins such as STATS, C-Myc, ERK, NF-κB p65, AKT in cells were tested (FIGS. 1a-1f).

Tel-FLT3-BaF3 = assay: Proliferation of Tel-FLT3-BaF3 cells, CCK8 cell viability assay; format: cell-based; settings: Mus musculus, 72 hours, stably expressing FLT3 kinase
Outline: (§1)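 Murine BaF3 cells made IL-3-independent by retroviral transduction of human kinase domains fused to N-terminal TEL or TPR fragments; parental BaF3 included. Living cells quantified by CCK8 (dehydrogenase activity) read-out, giving GI50 in μM.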

[1] = system: human acute myeloid leukemia cell strain OCI-AML-3; assay: Proliferation of OCI-AML-3 cells, Cell Titer-Glo; format: cell-based; settings: 72 hours, FLT3 A680V
Procedure: (§2) In addition, in this example the inhibitory activity of preferred compounds (Compound 5 and Compound 135) was tested against the following cell strains: human acute myeloid leukemia cell strain MV4-11 (expressing FLT3/ITD mutant gene), human acute myeloid leukemia cell strain MOLM-13 (expressing FLT3/ITD mutant gene and wild-type FLT3 gene), human acute myeloid leukemia cell strain MOLM-14 (expressing FLT3/ITD mutant gene and wild-type FLT3 gene), human acute myeloid leukemia cell strain OCI-AML-3 (expressing FLT3 A680V mutant gene), human chronic lymphatic leukemia cell strain MEC-1, Chinese hamster lung (CHL) cells, Chinese hamster ovary (CHO) cells, wherein all the cells were purchased from ATCC. In the example the compounds of the present invention were added respectively into the above cells at different concentrations (0.000508 μM, 0.00152 μM, 0.00457 μM, 0.0137 μM, 0.0411 μM, 0.123 μM, 0.370 μM, 1.11 μM, 3.33 μM, 10 μM in DMSO) and the cells were incubated for 72 hours. The number of viable cells was determined by quantification of ATP in living cells using Cell Titer-Glo® (Promega, the USA) Luminescent Cell Viability Assay kit and thereby GI50 was calculated.

TEL-PDGFRα-BaF3 = assay: Proliferation of TEL-PDGFRα-BaF3 cells, CCK8 cell viability assay; format: cell-based; settings: Mus musculus, 72 hours, stably expressing PDGFRα kinase
Outline: as §1

Tel-cKit/T670I-BaF3 = assay: Proliferation of Tel-cKit/T670I-BaF3 cells, CCK8 cell viability assay; format: cell-based; settings: Mus musculus, 72 hours, stably expressing cKIT/T670I
Outline: as §1

[2] = system: Chinese hamster lung (CHL) cells; assay: cells; format: cell-based; settings: Cricetulus griseus, 72 hours, Cell Titer-Glo
Procedure: as §2

MV4-11 cells = assay: Nude mouse model harboring subcutaneous MV4-11 tumor; format: in vivo; settings: for tumor volume increase: oral gavage; for tumor growth in mice: MV4-11 subcutaneous tumor, daily oral gavage, four weeks
Procedure: In order to determine the inhibitory effect of Compound 5 and Compound 135 on tumors in vivo, a nude mouse model harboring subcutaneous tumor was introduced. 44 mice (5-week-old) (Balb/c-nu female mice, purchased from Shanghai Snake Experimental Animal Co., Ltd.) were inoculated subcutaneously with MV4-11 cells at 1×10^7 cells/mouse, and the changes in body weight and tumor volume were recorded daily (tumor volume=tumor length×tumor width×tumor width/2). 10 days later, the mice, of which tumor volumes reached 200 mm^3, were randomized into seven groups with 5-9 mice in each group, and were treated as follows: the first group was administered daily by oral gavage with vehicle, i.e., methylcellulose-based aqueous suspension (purchased from Sinopharm Group Chemical Reagent Co., Ltd.); the second, third and the fourth groups were administered daily by oral gavage with 25 mg/kg, 50 mg/kg, 100 mg/kg of Compound 135 in a methylcellulose-based aqueous suspension formulation; the fifth, sixth and seventh groups were administered daily by oral gavage with 25 mg/kg, 50 mg/kg, 100 mg/kg of Compound 5 in a methylcellulose-based aqueous suspension formulation. The first day of administration was recorded as day 0, followed by continuous administration for four weeks (FIGS. 3a-3b).

[3] = system: human chronic lymphatic leukemia cell strain MEC-1; assay: Proliferation of MEC-1 cells, Cell Titer-Glo; format: cell-based; settings: MEC1, 72 hours
Procedure: as §2

SMILES | degradation of C-Myc (C-Myc) | GI50 (Tel-FLT3-BaF3) [nM] | GI50 [1] [µM] | GI50 (TEL-PDGFRα-BaF3) [nM] | GI50 (Tel-cKit/T670I-BaF3) [µM] | GI50 [2] [µM] | tumor volume increase (MV4-11 cells; 50 mg/kg/day) | tumor volume increase (MV4-11 cells; 100 mg/kg/day) | tumor growth in mice (MV4-11 cells) | GI50 [3] [µM]
CC(=O)Nc1cc(Oc2ccc(NC(=O)Cc3ccccc3C(F)(F)F)cc2)ncn1 [Example 135, N-[4-(6-acetylamino-pyrimidin-4-yloxy)-phenyl]-2-(2-trifluoromethyl-phenyl)-acetamide] | significant effects on the degradation | 249 | > 10 | 7 | > 10 | > 10 | slowed significantly | slowed vastly | significantly inhibited | > 10
CC(=O)Nc1cc(Oc2ccc(NC(=O)Cc3ccc(F)cc3F)cc2)ncn1 [Example 5, N-[4-(6-acetylamino-pyrimidin-4-yloxy)-phenyl]-2-(2,4-difluoro-phenyl)-acetamide] | significant effects on the degradation | 746 | > 10 | 14 | > 10 | > 10 | slowed significantly | slowed vastly | significantly inhibited | > 10
